Results: US4252798A, “Reversible male contraception” (The Upjohn Company, priority 1980, dated 1981)

Key:
[1] = test system: healthy male mammal post-puberty (man); test: Male contraception by oral administration to man; type: in vivo
Procedure: A 60 kg. Person who is the admitted parent of 2 children is given one 50 mg. tablet daily of 17β-methoxy-2α-methyl-5α-androstan-3-one.
A 60 kg. Person is treated daily with one teaspoonful of a suspension of 2α,3α-epithio-17β-ethoxy-5α-androstane (100 mg./ml.).

tom = test: Male contraception by daily treat given to tom; type: in vivo, tom (cat)
Procedure: A 6 kg. tom who has previously sired offspring is given a treat daily containing 20 mg. of 17β-methoxy-2α-methyl-5α-androstan-3-one. […] Eighty days following cessation of administration of the treat, the tom, upon sexual intercourse, fertilizes the same ovulating female at the time of her estrus.

[2] = test system: rat ABP (androgen binding protein) and rat AR (androgen receptor); test: ABP/AR ratio: relative affinity (vs DHT) for rat ABP and rat AR; conditions: ratio of relative affinity for rat ABP to relative affinity for rat AR, each compared to DHT
Description: The present invention includes steroids which have a high affinity for rat ABP (androgen binding protein) as compared to DHT (dihydrotestosterone, 17β-hydroxy-5α-androst-3-one). N. A. Musto et al. in Endo. Res. Comm. 4, 147 (1977) have described a procedure for isolation and purification of rat ABP. Utilizing the purified rat ABP, and following the procedure of E. M. Ritzen et al. described in J. Biol. Chem. 249, 6597 (1974), the relative affinity of various non-estrogenic-type steroids can readily be determined. The dissociation constant (Kd) measures the affinity of a compound for a protein. The dissociation constant for DHT and the non-estrogenic-type steroids is determined. […]
E. M. Wilson and F. S. French in the J. Biol. Chem. 251, 5620 (1976) have described a procedure for isolation and partial purification of rat AR. Utilizing the rat AR and following the procedure of G. Verhoeven et al. described in Steroids 26, 149 (1975) the relative affinity of various steroids can readily be determined. The dissociation constant for DHT and non-estrogenic steroids is determined. […] D. J. Tindall, et al., in the International Journal of Andrology, Supplement 2 (1978) set forth the preferred method for determining the relative affinities of a steroid for ABP and AR from which the ABP/AR ratio can be calculated. […]

normal men = conditions: six normal men; Morse et al., J. Clin. Endocrinol. Metab. 37, 882 (1973); cited from earlier work
men = conditions: cited from earlier work

## CO[C@H]1CC[C@H]2[C@@H]3CC[C@H]4C[C@@H]5S[C@@H]5C[C@]4(C)[C@H]3CC[C@]12C [2α,3α-epithio-17β-methoxy-5α-androstane]
[1]; Example 3: 70 one-half teaspoonful/day of elixir (100 mg./ml.), after 60 days
  fertilization of a fertile female following sexual intercourse: does not fertilize
[1]; Example 3: continued daily elixir
  fertility on continued administration: remains infertile

## CO[C@H]1CC[C@H]2[C@@H]3CC[C@H]4CC(=O)[C@H](C)C[C@]4(C)[C@H]3CC[C@]12C [17β-methoxy-2α-methyl-5α-androstan-3-one]
[1]; Example 1: 70 10 mg tablet twice daily for about 100 days
  fertilization of a fertile female following sexual intercourse: does not fertilize
[1]; Example 1: continued twice daily
  fertility on continued administration: remains infertile
[1]; Example 2: 80 200 mg capsule four times daily for 60 days
  fertilization of a fertile female following sexual intercourse: does not fertilize
[1]; Example 2: continued 4 times daily
  fertility on continued administration: remains infertile
[1]; Example 4: continued daily
  fertility on continued administration: remains infertile
tom; Example 6: 6 kg tom, treat with 20 mg daily, after 60 days
  fertilization of an ovulating female at estrus following sexual intercourse: does not fertilize
tom; Example 6: continued daily treat
  fertility on continuous daily administration: remains infertile
tom; Example 6: eighty days following cessation of the treat
  fertilization of the same ovulating female after cessation (reversibility): fertilizes

## C[C@@H]1C[C@@]2(C)C(=CC1=O)C[C@@H](C)[C@H]1[C@@H]3CC[C@H](O)[C@@]3(C)CC[C@@H]12 [2α,7α-dimethyltestosterone]
[2]
  ABP/AR ratio: about 6.0

## CCC(=O)O[C@H]1CC[C@H]2[C@@H]3CCC4=CC(=O)CC[C@]4(C)[C@H]3CC[C@]12C [testosterone propionate]
Normal men
  sperm concentration: sharp drop
  testicular testosterone: decrease

## CCCCCCC(=O)O[C@H]1CC[C@H]2[C@@H]3CCC4=CC(=O)CC[C@]4(C)[C@H]3CC[C@]12C [testosterone enanthate]
men; Steinberger et al., Fertility and Sterility 27, 216 (1976)
  effect on sperm in men who acknowledged paternity: azoospermia
men; seven men, Mauss et al., Acta. Endocrinol. 78, 373 (1975)
  sperm count: less than 3,000,000 sperm/ml

## CCO[C@H]1CC[C@H]2[C@@H]3CC[C@H]4C[C@@H]5S[C@@H]5C[C@]4(C)[C@H]3CC[C@]12C [2α,3α-epithio-17β-ethoxy-5α-androstane]
[1]; Example 5: 60 one teaspoonful daily of suspension (100 mg./ml.), after 60 days
  fertilization of a fertile female following sexual intercourse: does not fertilize
[1]; Example 5: further administration
  fertility on further administration: remains infertile
